Experimental data taken from article PMC12638379, “An innovative approach to development of new pyrazolylquinolin-2-one hybrids as dual EGFR and BRAF^V600E inhibitors” (Molecular Diversity, 2025).
Like-named read-outs stand apart in the source and are kept apart here.

Test system: NCI 60 cancer cell lines
Assay: NCI anticancer screening over a panel of 60 cancer cells, single concentration 10 µM
Format: cell-based, human
Conditions: Homo sapiens, read-out: Growth inhibition (GI %)
Summary of the method: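 Run under the NCI Compound Evaluation Branch protocol, each compound was tested once at 10 µM. The panel comprised 60 cancer cell lines of diverse tissue origin, including leukemia, lung, colon, CNS, renal, ovarian, breast and prostate.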

CC(=O)c1cnn(-c2cc(=O)[nH]c3ccc(C)cc23)c1C [Compound 2b, 4-(4-Acetyl-5-methyl-1H-pyrazol-1-yl)-6-methylquinolin-2(1H)-one]
inhibition at 10 µM (786-0, Renal cancer 786-0, 10 μM): < 5%
inhibition at 10 µM (A498, Renal cancer A498, 10 μM): < 5%
inhibition at 10 µM (A549, Non-small cell lung cancer A549/ATCC, 10 μM): < 5%
inhibition at 10 µM (ACHN, Renal cancer ACHN, 10 μM): < 5%
inhibition at 10 µM (BT-549, Breast cancer BT-549, 10 μM): < 5%
inhibition at 10 µM (CAKI-1, Renal cancer CAKI-1, 10 μM): 8.89%
inhibition at 10 µM (CCRF-CEM, Leukemia CCRF-CEM, 10 μM): < 5%
inhibition at 10 µM (COLO 205, Colon cancer COLO 205, 10 μM): < 5%
inhibition at 10 µM (DU-145, Prostate cancer DU-145, 10 μM): < 5%
inhibition at 10 µM (EKVX, Non-small cell lung cancer EKVX, 10 μM): < 5%
inhibition at 10 µM (HCC 2998, Colon cancer HCC-2998, 10 μM): < 5%
inhibition at 10 µM (HCT-15, Colon cancer HCT-15, 10 μM): < 5%
inhibition at 10 µM (HCT-116, Colon cancer HCT-116, 10 μM): < 5%
inhibition at 10 µM (HL-60, Leukemia HL-60(TB), 10 μM): 19%
inhibition at 10 µM (HOP-62, Non-small cell lung cancer HOP-62, 10 μM): 6.93%
inhibition at 10 µM (HOP-92, Non-small cell lung cancer HOP-92, 10 μM): < 5%
inhibition at 10 µM (HT-29, Colon cancer HT29, 10 μM): < 5%
inhibition at 10 µM (Hs-578T, Breast cancer HS 578T, 10 μM): < 5%
inhibition at 10 µM (IGROV-1, Ovarian cancer IGROV1, 10 μM): < 5%
inhibition at 10 µM (K562, Leukemia K-562, 10 μM): < 5%
inhibition at 10 µM (KM12, Colon cancer KM12, 10 μM): < 5%
inhibition at 10 µM (LOX IMVI, Melanoma LOX IMVI, 10 μM): 5.38%
inhibition at 10 µM (Leukemia SR, 10 μM): < 5%
inhibition at 10 µM (MDA-MB-231, Breast Cancer MDA-MB 231/ATCC, 10 μM): < 5%
inhibition at 10 µM (MDA-MB-435, Melanoma MDA-MB-435, 10 μM): < 5%
inhibition at 10 µM (MDA-MB-468, Breast cancer MDA-MB-468, 10 μM): < 5%
inhibition at 10 µM (MOLT-4, Leukemia MOLT-4, 10 μM): < 5%
inhibition at 10 µM (Malme-3M, Melanoma MALME-3M, 10 μM): < 5%
inhibition at 10 µM (Melanoma M14, 10 μM): < 5%
inhibition at 10 µM (NCI-H23, Non-small cell lung cancer NCI-H23, 10 μM): < 5%
inhibition at 10 µM (NCI-H226, Non-small cell lung cancer NCI-H226, 10 μM): < 5%
inhibition at 10 µM (NCI-H322M, Non-small cell lung cancer NCI-H322M, 10 μM): < 5%
inhibition at 10 µM (NCI-H460, Non-small cell lung cancer NCI-H460, 10 μM): < 5%
inhibition at 10 µM (NCI-H522, Non-small cell lung cancer NCI-H522, 10 μM): 6.79%
inhibition at 10 µM (NCI/ADR-RES, Ovarian cancer NCI/ADR-RES, 10 μM): < 5%
inhibition at 10 µM (OVCAR-3, Ovarian cancer OVCAR-3, 10 μM): < 5%
inhibition at 10 µM (OVCAR-4, Ovarian cancer OVCAR-4, 10 μM): < 5%
inhibition at 10 µM (OVCAR-5, Ovarian cancer OVCAR-5, 10 μM): < 5%
inhibition at 10 µM (OVCAR-8, Ovarian cancer OVCAR-8, 10 μM): < 5%
inhibition at 10 µM (Prostate cancer PC-3, 10 μM): 4.29%
inhibition at 10 µM (RPMI-8226, Leukemia RPMI-8226, 10 μM): < 5%
inhibition at 10 µM (RXF 393, Renal cancer RXF 393, 10 μM): < 5%
inhibition at 10 µM (SF-268, CNS Cancer SF-268, 10 μM): < 5%
inhibition at 10 µM (SF-295, CNS Cancer SF-295, 10 μM): < 5%
inhibition at 10 µM (SF-539, CNS Cancer SF-539, 10 μM): < 5%
inhibition at 10 µM (SK-MEL-2, Melanoma SK-MEL-2, 10 μM): < 5%
inhibition at 10 µM (SK-MEL-5, Melanoma SK-MEL-5, 10 μM): < 5%
inhibition at 10 µM (SK-MEL-28, Melanoma SK-MEL-28, 10 μM): < 5%
inhibition at 10 µM (SK-OV-3, Ovarian cancer SK-OV-3, 10 μM): < 5%
inhibition at 10 µM (SN12C, Renal cancer SN12C, 10 μM): < 5%
inhibition at 10 µM (SNB-19, CNS Cancer SNB-19, 10 μM): < 5%
inhibition at 10 µM (SNB-75, CNS Cancer SNB-75, 10 μM): < 5%
inhibition at 10 µM (SW-620, Colon cancer SW-620, 10 μM): < 5%
inhibition at 10 µM (T47D, Breast cancer T-47D, 10 μM): 6.75%
inhibition at 10 µM (TK-10, Renal cancer TK-10, 10 μM): < 5%
inhibition at 10 µM (U-251, CNS Cancer U251, 10 μM): 5.31%
inhibition at 10 µM (UACC-62, Melanoma UACC-62, 10 μM): < 5%
inhibition at 10 µM (UACC-257, Melanoma UACC-257, 10 μM): < 5%
inhibition at 10 µM (UO-31, Renal cancer UO-31, 10 μM): 19%
